Among the data in ChEMBL document CHEMBL3769390, “Inhibitors of the Antiapoptotic Myeloid Cell Leukemia-1 (Mcl-1) May Provide Effective Treatment for Cancer” (ACS Med Chem Lett, 2015) are Ki and IC50 values, retold here.

Where only a bound is given, the exact number is not on record here.

Assay [1] addresses T1, Induced myeloid leukemia cell differentiation protein Mcl-1 (Homo sapiens, UniProt Q07820). Put plainly: Inhibition of recombinant Mcl-1 (residues 172-327) (unknown origin) using FITC-AHx-EARIAQELRRIGDEFNETYTR-NH2 as substrate after 90 mins by fluorescence polarization anisotropy competition assay. For orientation: Fluorescence polarisation rises when a labelled molecule tumbles more slowly, as on binding a larger partner.

Assay [2] can be described thus: Inhibition of Bcl-2 (residues i_207 A96T/G110R, delta 35-91, replaced with Bcl-xL35-50) (unknown origin) using FITC-AHx-GQVGRQLAIIGDDINR-NH2 as substrate after 90 mins by fluorescence polarization anisotropy competition assay. Also on record: species or system Homo sapiens.
A short description of assay [3]: Inhibition of Bcl-xL (residues 1-209, loop 45 to 86 deleted) (unknown origin) using FITC-AHx-GQVGRQLAIIGDDINR-NH2 as substrate after 90 mins by fluorescence polarization anisotropy competition assay. Further details: species or system Homo sapiens.
Assay [4] is described as follows: Antiproliferative activity against human ALMC1 cells after 72 hrs by Cell TiterGlo assay. The following applies: ALMC1, 72 h. Type of assay: functional, cell-based. For orientation: ATP-based viability assays read luminescence as a measure of living cells.
A short description of assay [5]: Antiproliferative activity against human ALMC2 cells after 72 hrs by Cell TiterGlo assay. In kind it is functional, cell-based. Particulars: ALMC2, 72 h.
A short description of assay [6]: Antiproliferative activity against human NCI-H929 cells after 72 hrs by Cell TiterGlo assay. Particulars: NCI-H929, 72 h. In kind it is functional, cell-based.
The test system of assay [7] is K562. Kind of assay: Antiproliferative activity against human K562 cells after 72 hrs by Cell TiterGlo assay. Type of assay: functional, cell-based. Particulars: K562, 72 h.
The target in assay [8] is T1, Induced myeloid leukemia cell differentiation protein Mcl-1. Put plainly: Inhibition of recombinant Mcl-1 (residues 172-327) (unknown origin) using FITC-AHx-GQVGRQLAIIGDDINR-NH2 as substrate after 90 mins by fluorescence polarization anisotropy competition assay.
Assay [9] in a line: Antiproliferative activity against human OPM2 cells after 72 hrs by Cell TiterGlo assay. In kind it is functional, cell-based. The following applies: OPM-2, 72 h.

T1 sequence (Q07820 whole entry, the tested form may be a part): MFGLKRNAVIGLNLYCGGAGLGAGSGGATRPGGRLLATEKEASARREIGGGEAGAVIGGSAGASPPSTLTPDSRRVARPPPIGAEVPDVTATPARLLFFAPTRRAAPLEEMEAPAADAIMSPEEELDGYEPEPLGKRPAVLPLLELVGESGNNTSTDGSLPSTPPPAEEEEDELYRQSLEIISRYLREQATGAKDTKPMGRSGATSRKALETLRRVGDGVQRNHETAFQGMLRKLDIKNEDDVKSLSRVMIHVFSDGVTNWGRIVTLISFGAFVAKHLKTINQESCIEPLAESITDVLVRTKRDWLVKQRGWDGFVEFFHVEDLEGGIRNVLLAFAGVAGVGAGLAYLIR

What is called Ki is a measure of affinity in units of concentration, obtained from inhibition or displacement. With `Cc1cc(OCCCc2c(C(=O)NCc3cc(C(=O)O)n(C)c3)[nH]c3c(-c4c(C)nn(C)c4C)cccc23)cc(C)c1Cl`, the Ki is under 0.05 µM in assay [1], over 100 µM in [2] and 3.54 µM in assay [3].

For `Cc1cc(OCCCc2c(C(=O)NC(C)(C)C)[nH]c3ccccc23)cc(C)c1Cl`, the inhibition constant (Ki) in assay [1] was found to be 1 µM.

Turning to `Cc1cc(OCCCc2c(C(=O)Nc3ccc(C#N)cc3)[nH]c3c(-c4c(C)nn(C)c4C)c(Cl)ccc23)cc(C)c1Cl`, the inhibition constant (Ki) in [1] was 0.051 µM.

What is called IC50 is the concentration at which inhibition is half-maximal. A higher IC50 goes with a need for much substance. Consider `Cc1cc(OCCCc2c3n(c4c(-c5c(C)nn(C)c5C)c(Cl)ccc24)CCCN(c2cccc(C(=O)O)c2)C3=O)cc(C)c1Cl`, for which affinity in assay [3] was put at a Ki of 1.9 µM. Moreover, the half-inhibitory concentration (IC50) in assay [4] stood at 12 µM; in assay [5], 20.8 µM; in assay [6], 6.3 µM; in assay [7] it was 23.2 µM.

As for `Cc1cc(OCCCc2c(C(=O)NCc3cc(C(=O)O)ccn3)[nH]c3c(-c4c(C)nn(C)c4C)cccc23)cc(C)c1Cl`, the Ki is 27 µM in assay [2] and 7.9 µM in assay [3].

For `Cc1cc(OCCCc2c3n(c4c(-c5c(C)nn(C)c5C)cccc24)CCN(Cc2cccc(C(=O)O)c2)C3=O)cc(C)c1Cl`, the Ki in assay [1] was under 0.05 µM; in [8], under 0.007 µM; in assay [2], 6.44 µM; in assay [3], 2.2 µM. Besides, the concentration for half-maximal inhibition (IC50) in assay [4] turned out to be 13.1 µM; in assay [5], 33.9 µM; in assay [6] it was 15 µM; in assay [9], 16.3 µM; in assay [7], 40 µM.
